Data published in US9931347B2, “Pharmaceutical compound” (IOmet Pharma Ltd., priority 2013, dated 2018).

Each molecule was assayed against T1, IDO (SKOV3 human ovarian adenocarcinoma cells, IFN-γ induced) (Homo sapiens, UniProt P14902) (assay: SKOV3 Kynurenine cell based assay). Settings: IDO induced by 500 ng/ml IFN-γ, 500 μM L-tryptophan, 48 hours.
T1 construct: IDO expression was induced in the SKOV3 cells by the addition of 500 ng/ml IFN-γ; endogenous in cells; host or cells: SKOV3 human ovarian adenocarcinoma cells, induced with IFN-γ
Procedure: (§1) Exemplary compounds of the invention were prepared, and tested to determine their effect as TDO and/or IDO inhibitors. Two different assays were employed: 1. a cell-based assay for detecting the effect of test compounds on kynurenine production in two different cancer cell types. This assay utilised cancer cells which expressed either TDO or IDO and as such was used as a means of testing compound activity at these two enzymes in a cell-based context. 2. a TDO and IDO biochemical coupled assay which utilised recombinantly produced and purified TDO and IDO enzymes in combination with the enzyme formamidase. This coupled enzyme system allowed conversion of N-formylkynurenine produced by TDO or IDO activity to kynurenine which was then quantified by fluorescence following addition of Erhlich's Reagent The protocols for these are set out below.
(§2) A172 (human glioblastoma) and SKOV3 (human ovarian adenocarcinoma) cells were seeded in a 96 well plate at 30,000 or 40,000 cells per well respectively in phenol red-free RPMI supplemented with 10% FCS, 2 mM L-glutamine and 500 μM L-tryptophan. IDO expression was induced in the SKOV3 cells by the addition of 500 ng/ml IFN-γ. Cells were incubated at 37° C. with or without the addition of test compound. After 48 hours, the cells were removed by centrifugation and Erhlich's reagent was added to the supernatant.

T1 sequence (P14902 whole entry): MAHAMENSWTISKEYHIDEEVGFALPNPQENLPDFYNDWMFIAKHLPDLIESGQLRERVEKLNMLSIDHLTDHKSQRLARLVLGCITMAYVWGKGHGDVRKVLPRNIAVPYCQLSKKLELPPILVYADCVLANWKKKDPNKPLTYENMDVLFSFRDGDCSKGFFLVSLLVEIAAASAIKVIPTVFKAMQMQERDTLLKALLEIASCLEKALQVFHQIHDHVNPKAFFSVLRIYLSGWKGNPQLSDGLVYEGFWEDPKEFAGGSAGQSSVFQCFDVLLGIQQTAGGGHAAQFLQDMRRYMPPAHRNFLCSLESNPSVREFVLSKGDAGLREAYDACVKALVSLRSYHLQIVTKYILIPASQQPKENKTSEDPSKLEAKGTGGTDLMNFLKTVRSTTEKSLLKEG

| Structure (SMILES) | SKOV3 Kynurenine cell based assay pIC50 |
| --- | --- |
| CS(=O)(=O)N1CCC(c2c[nH]c3ccc(C#N)cc23)CC1 [Compound 177] | + (+ = pIC50 4.00-4.99) |
| CS(=O)(=O)N1CCC(c2c[nH]c3ccccc23)C(O)C1 (stereo not drawn) [Compound 187] | +− (+− = pIC50 <4.00) |
| O=C1CN(c2c[nH]c3ccccc23)CCN1 [Compound 188] | +− (+− = pIC50 <4.00) |
| O=C1CCC2CN(c3c[nH]c4ccccc34)CCN12 (stereo not drawn) [Compound 190] | +− (+− = pIC50 <4.00) |
| CC1(C)CN(c2c[nH]c3ccccc23)CCN1S(C)(=O)=O [Compound 191] | +− (+− = pIC50 <4.00) |
| CN1CC2CN(c3c[nH]c4ccccc34)CCN2C1=O (stereo not drawn) [Compound 192] | +− (+− = pIC50 <4.00) |
| Fc1ccc2c(C3CCN(c4ccccn4)CC3)c[nH]c2c1 [Compound 193] | ++ (++ = pIC50 5.00-5.99) |
| CC(=O)N1CC=C(c2c[nH]c3c(Cl)cccc23)CC1 [Compound 196] | + (+ = pIC50 4.00-4.99) |
| CC(=O)N1CCC(c2c[nH]c3cnccc23)CC1 [Compound 203] | + (+ = pIC50 4.00-4.99) |
| Cc1ccc2c(C3CCN(S(C)(=O)=O)CC3)c[nH]c2c1 [Compound 207] | + (+ = pIC50 4.00-4.99) |
| CC(=O)N1CCC(c2c[nH]c3ccc(OCc4ccccc4)cc23)CC1 [Compound 208] | + (+ = pIC50 4.00-4.99) |
| O=S(=O)(N1CCCC1)N1CCC(c2c[nH]c3ccccc23)CC1 [Compound 213] | + (+ = pIC50 4.00-4.99) |
| CS(=O)(=O)N1CC=C(c2c[nH]c3cc(F)cc(F)c23)CC1 [Compound 215] | + (+ = pIC50 4.00-4.99) |
| CCN(CC)S(=O)(=O)N1CCC(c2c[nH]c3ccccc23)CC1 [Compound 217] | + (+ = pIC50 4.00-4.99) |
| CC(=O)N1CCC(c2c[nH]c3cc(OCc4ccccc4)ccc23)CC1 [Compound 221] | + (+ = pIC50 4.00-4.99) |
| CC(=O)N1CC=C(c2c[nH]c3cc(C(F)(F)F)ccc23)CC1 [Compound 223] | + (+ = pIC50 4.00-4.99) |
| CC(=O)N1CC=C(c2c[nH]c3ccc(C#N)cc23)CC1 [Compound 225] | + (+ = pIC50 4.00-4.99) |
| CC(=O)N1CC=C(c2c[nH]c3cc(Cl)c(F)cc23)CC1 [Compound 228] | + (+ = pIC50 4.00-4.99) |
| CC(=O)N1CC=C(c2c[nH]c3ccc(C(F)(F)F)cc23)CC1 [Compound 229] | + (+ = pIC50 4.00-4.99) |

| Structure (SMILES) | SKOV3 Kynurenine cell based assay pIC50 |
| --- | --- |
| CC(=O)N1CC=C(c2c[nH]c3c(F)cc(F)cc23)CC1 [Compound 231] | + (+ = pIC50 4.00-4.99) |
| CC(=O)N1CCC(c2c[nH]c3cc(C(F)(F)F)ccc23)CC1 [Compound 232] | + (+ = pIC50 4.00-4.99) |
| CC(=O)N1CCC(c2c[nH]c3ccc(C#N)cc23)CC1 [Compound 233] | + (+ = pIC50 4.00-4.99) |
| CS(=O)(=O)N1CCC(c2c[nH]c3cc(C(F)(F)F)ccc23)CC1 [Compound 234] | + (+ = pIC50 4.00-4.99) |
| CC(=O)N1CCC(c2c[nH]c3ccc(Cl)cc23)CC1 [Compound 238] | + (+ = pIC50 4.00-4.99) |
| CS(=O)(=O)N1CCC(c2c[nH]c3ccc(Cl)cc23)CC1 [Compound 239] | ++ (++ = pIC50 5.00-5.99) |
| CS(=O)(=O)N1CCC(c2c[nH]c3ccc(C(F)(F)F)cc23)CC1 [Compound 240] | ++ (++ = pIC50 5.00-5.99) |
| CC(=O)N1CCC(c2c[nH]c3ccc(C(F)(F)F)cc23)CC1 [Compound 241] | + (+ = pIC50 4.00-4.99) |
| CS(=O)(=O)N1CCC(c2c[nH]c3cc(Cl)c(F)cc23)CC1 [Compound 243] | + (+ = pIC50 4.00-4.99) |
| CS(=O)(=O)N1CCC(c2c[nH]c3cc(Cl)ccc23)CC1 [Compound 244] | + (+ = pIC50 4.00-4.99) |
| CC(=O)N1CCC(c2c[nH]c3cc(Cl)ccc23)CC1 [Compound 245] | + (+ = pIC50 4.00-4.99) |
| CS(=O)(=O)N1CC=C(c2c[nH]c3cc(F)c(Cl)cc23)CC1 [Compound 248] | + (+ = pIC50 4.00-4.99) |
| CN(C)S(=O)(=O)N1CCC(c2c[nH]c3cc(F)ccc23)CC1 [Compound 250] | + (+ = pIC50 4.00-4.99) |
| CC(=O)N1CCC(c2c[nH]c3cc(F)c(Cl)cc23)CC1 [Compound 252] | + (+ = pIC50 4.00-4.99) |
| CS(=O)(=O)N1CCC(c2c[nH]c3cc(F)c(Cl)cc23)CC1 [Compound 253] | + (+ = pIC50 4.00-4.99) |
| CN(C)CCOc1ccc2c(C3=CCN(S(C)(=O)=O)CC3)c[nH]c2c1 [Compound 254] | + (+ = pIC50 4.00-4.99) |
| CC(=O)N1CC=C(c2c[nH]c3cc(OCCN(C)C)ccc23)CC1 [Compound 255] | + (+ = pIC50 4.00-4.99) |
| CCCC(=O)N1CCC(c2c[nH]c3cc(F)ccc23)CC1 [Compound 270] | + (+ = pIC50 4.00-4.99) |
| CS(=O)(=O)N1CCC(C2C(=O)Nc3ccc(C#N)cc32)CC1 (stereo not drawn) [Compound 312] | + (+ = pIC50 4.00-4.99) |

Each molecule was assayed against T2, TDO (A172 human glioblastoma cells) (Homo sapiens, UniProt P48775) (assay: A172 Kynurenine cell based assay). Settings: 500 μM L-tryptophan, 48 hours, kynurenine by Erhlich's reagent.
T2 construct: This assay utilised cancer cells which expressed either TDO or IDO; endogenous in cells; host or cells: A172 human glioblastoma cells
Procedure: as §1
as §2, with “supernatant. The Erhlich's reagent was incubated for 5 minutes before the absorbance was read at 490 nm.” for “supernatant.”

T2 sequence (P48775 whole entry): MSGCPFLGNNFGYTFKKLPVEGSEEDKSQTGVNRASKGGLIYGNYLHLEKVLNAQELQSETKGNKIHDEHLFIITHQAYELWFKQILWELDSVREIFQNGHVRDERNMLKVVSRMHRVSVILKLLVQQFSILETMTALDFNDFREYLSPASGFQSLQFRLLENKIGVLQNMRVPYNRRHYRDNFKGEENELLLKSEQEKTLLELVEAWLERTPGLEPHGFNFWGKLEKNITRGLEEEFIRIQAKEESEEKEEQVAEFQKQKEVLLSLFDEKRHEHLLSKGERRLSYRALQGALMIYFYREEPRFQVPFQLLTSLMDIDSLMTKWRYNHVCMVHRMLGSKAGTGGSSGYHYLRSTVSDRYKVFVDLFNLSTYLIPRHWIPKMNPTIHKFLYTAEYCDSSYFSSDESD

| Structure (SMILES) | A172 Kynurenine cell based assay pIC50 |
| --- | --- |
| CS(=O)(=O)N1CCC(c2c[nH]c3ccc(C#N)cc23)CC1 [Compound 177] | + (+ = pIC50 4.00-4.99) |
| CS(=O)(=O)N1CCC(c2c[nH]c3ccccc23)C(O)C1 (stereo not drawn) [Compound 187] | + (+ = pIC50 4.00-4.99) |
| O=C1CN(c2c[nH]c3ccccc23)CCN1 [Compound 188] | ++ (++ = pIC50 5.00-5.99) |
| O=C1CCC2CN(c3c[nH]c4ccccc34)CCN12 (stereo not drawn) [Compound 190] | ++ (++ = pIC50 5.00-5.99) |
| CC1(C)CN(c2c[nH]c3ccccc23)CCN1S(C)(=O)=O [Compound 191] | ++ (++ = pIC50 5.00-5.99) |
| CN1CC2CN(c3c[nH]c4ccccc34)CCN2C1=O (stereo not drawn) [Compound 192] | + (+ = pIC50 4.00-4.99) |
| Fc1ccc2c(C3CCN(c4ccccn4)CC3)c[nH]c2c1 [Compound 193] | ++ (++ = pIC50 5.00-5.99) |
| CC(=O)N1CC=C(c2c[nH]c3c(Cl)cccc23)CC1 [Compound 196] | + (+ = pIC50 4.00-4.99) |
| CC(=O)N1CCC(c2c[nH]c3cnccc23)CC1 [Compound 203] | + (+ = pIC50 4.00-4.99) |
| Cc1ccc2c(C3CCN(S(C)(=O)=O)CC3)c[nH]c2c1 [Compound 207] | + (+ = pIC50 4.00-4.99) |
| CC(=O)N1CCC(c2c[nH]c3ccc(OCc4ccccc4)cc23)CC1 [Compound 208] | + (+ = pIC50 4.00-4.99) |
| O=S(=O)(N1CCCC1)N1CCC(c2c[nH]c3ccccc23)CC1 [Compound 213] | + (+ = pIC50 4.00-4.99) |
| CS(=O)(=O)N1CC=C(c2c[nH]c3cc(F)cc(F)c23)CC1 [Compound 215] | ++ (++ = pIC50 5.00-5.99) |
| CCN(CC)S(=O)(=O)N1CCC(c2c[nH]c3ccccc23)CC1 [Compound 217] | + (+ = pIC50 4.00-4.99) |
| CC(=O)N1CCC(c2c[nH]c3cc(OCc4ccccc4)ccc23)CC1 [Compound 221] | + (+ = pIC50 4.00-4.99) |
| CC(=O)N1CC=C(c2c[nH]c3cc(C(F)(F)F)ccc23)CC1 [Compound 223] | + (+ = pIC50 4.00-4.99) |
| CC(=O)N1CC=C(c2c[nH]c3ccc(C#N)cc23)CC1 [Compound 225] | + (+ = pIC50 4.00-4.99) |
| CC(=O)N1CC=C(c2c[nH]c3cc(Cl)c(F)cc23)CC1 [Compound 228] | ++ (++ = pIC50 5.00-5.99) |
| CC(=O)N1CC=C(c2c[nH]c3ccc(C(F)(F)F)cc23)CC1 [Compound 229] | + (+ = pIC50 4.00-4.99) |

| Structure (SMILES) | A172 Kynurenine cell based assay pIC50 |
| --- | --- |
| CC(=O)N1CC=C(c2c[nH]c3c(F)cc(F)cc23)CC1 [Compound 231] | + (+ = pIC50 4.00-4.99) |
| CC(=O)N1CCC(c2c[nH]c3cc(C(F)(F)F)ccc23)CC1 [Compound 232] | + (+ = pIC50 4.00-4.99) |
| CC(=O)N1CCC(c2c[nH]c3ccc(C#N)cc23)CC1 [Compound 233] | + (+ = pIC50 4.00-4.99) |
| CS(=O)(=O)N1CCC(c2c[nH]c3cc(C(F)(F)F)ccc23)CC1 [Compound 234] | + (+ = pIC50 4.00-4.99) |
| CC(=O)N1CCC(c2c[nH]c3ccc(Cl)cc23)CC1 [Compound 238] | + (+ = pIC50 4.00-4.99) |
| CS(=O)(=O)N1CCC(c2c[nH]c3ccc(Cl)cc23)CC1 [Compound 239] | ++ (++ = pIC50 5.00-5.99) |
| CS(=O)(=O)N1CCC(c2c[nH]c3ccc(C(F)(F)F)cc23)CC1 [Compound 240] | + (+ = pIC50 4.00-4.99) |
| CC(=O)N1CCC(c2c[nH]c3ccc(C(F)(F)F)cc23)CC1 [Compound 241] | + (+ = pIC50 4.00-4.99) |
| CS(=O)(=O)N1CCC(c2c[nH]c3cc(Cl)c(F)cc23)CC1 [Compound 243] | + (+ = pIC50 4.00-4.99) |
| CS(=O)(=O)N1CCC(c2c[nH]c3cc(Cl)ccc23)CC1 [Compound 244] | + (+ = pIC50 4.00-4.99) |
| CC(=O)N1CCC(c2c[nH]c3cc(Cl)ccc23)CC1 [Compound 245] | ++ (++ = pIC50 5.00-5.99) |
| CS(=O)(=O)N1CC=C(c2c[nH]c3cc(F)c(Cl)cc23)CC1 [Compound 248] | ++ (++ = pIC50 5.00-5.99) |
| CN(C)S(=O)(=O)N1CCC(c2c[nH]c3cc(F)ccc23)CC1 [Compound 250] | ++ (++ = pIC50 5.00-5.99) |
| CC(=O)N1CCC(c2c[nH]c3cc(F)c(Cl)cc23)CC1 [Compound 252] | + (+ = pIC50 4.00-4.99) |
| CS(=O)(=O)N1CCC(c2c[nH]c3cc(F)c(Cl)cc23)CC1 [Compound 253] | + (+ = pIC50 4.00-4.99) |
| CN(C)CCOc1ccc2c(C3=CCN(S(C)(=O)=O)CC3)c[nH]c2c1 [Compound 254] | + (+ = pIC50 4.00-4.99) |
| CC(=O)N1CC=C(c2c[nH]c3cc(OCCN(C)C)ccc23)CC1 [Compound 255] | ++ (++ = pIC50 5.00-5.99) |
| CCCC(=O)N1CCC(c2c[nH]c3cc(F)ccc23)CC1 [Compound 270] | ++ (++ = pIC50 5.00-5.99) |
